# Measured values as given in patent US10849976B2, “Compositions and methods for protecting saponin activity” (SarTec Corporation, priority 2016, dated 2020).
# Where two headings read alike, the source gives them in different places.
# System: glucose oxidase
# Source text: In addition, a saponin molecule has a few to several glucose units bonded to it, depending on the exact plant from which the saponin is extracted. Each glucose unit bonded to the saponin may have up to four more hydroxy (—OH) groups attached and pointing outward from the glucose ring into the water solution. Glucose concentrations can be measured by an assay that depends on glucose oxidase acting upon glucose. However, glucose oxidase is prevented from acting upon glucose if borate is effectively bound to glucose. Thus, observing a declining amount of glucose as measured using a glucose oxidase based assay is indicative of borate binding to glucose, which in turn, serves as another indication of the efficacy of the saponin-protective agent.
# A standard glucose solution was prepared by weighing about 0.9 g of glucose and 0.450 g of NaCl into a 500.0 mL volumetric flask. Reverse osmosis water was added while mixing the reagents to reach the 500 mL total volume. Next, a 40.0 mL portion of the standard glucose solution was added to a 50 mL vial and 0.106 g of sodium borate was successively added resulting in a molar ratio of borate:glucose in a range of 1:1 to 6:1. Glucose levels were measured using a OneTouch Ultra 2 blood glucose meter.
# The glucose level for the standard glucose/saline solution was taken both before and after the borate-containing glucose solutions were measured for glucose concentration.
smiles,measurement,setting,value
"O=BOB(O)OB(O)OB=O [Sodium Borate, sodium borate]",Protection of glucose from oxidation by glucose oxidase,3:1 borate:glucose molar ratio,effectively entirely protected
same,Glucose Meter Reading,"Borate:Glucose molar ratio 1:1, 0.106 sodium borate added",106 mg/dL
same,Glucose Meter Reading,"Borate:Glucose molar ratio 2:1, 0.212 sodium borate added",38 mg/dL
same,Glucose Meter Reading,"Borate:Glucose molar ratio 3:1, 0.318 sodium borate added",“Low Glucose < 20 mg/dL”
same,Glucose Meter Reading,"Borate:Glucose molar ratio 6:1, 0.636 sodium borate added",“Error 4”
